Measurements published in the Kinase Knowledgebase extract (Sharma et al. 2016).
Values joined by “and” are separate entries in the source; they are usually repeats but may differ in a detail not shown here. Identical values can stand only once.

biological target: EGFR (Human), P00533 [T790M/L858R]; settings: nci-h1975
Sequence (P00533 whole entry T790M/L858R, looked up): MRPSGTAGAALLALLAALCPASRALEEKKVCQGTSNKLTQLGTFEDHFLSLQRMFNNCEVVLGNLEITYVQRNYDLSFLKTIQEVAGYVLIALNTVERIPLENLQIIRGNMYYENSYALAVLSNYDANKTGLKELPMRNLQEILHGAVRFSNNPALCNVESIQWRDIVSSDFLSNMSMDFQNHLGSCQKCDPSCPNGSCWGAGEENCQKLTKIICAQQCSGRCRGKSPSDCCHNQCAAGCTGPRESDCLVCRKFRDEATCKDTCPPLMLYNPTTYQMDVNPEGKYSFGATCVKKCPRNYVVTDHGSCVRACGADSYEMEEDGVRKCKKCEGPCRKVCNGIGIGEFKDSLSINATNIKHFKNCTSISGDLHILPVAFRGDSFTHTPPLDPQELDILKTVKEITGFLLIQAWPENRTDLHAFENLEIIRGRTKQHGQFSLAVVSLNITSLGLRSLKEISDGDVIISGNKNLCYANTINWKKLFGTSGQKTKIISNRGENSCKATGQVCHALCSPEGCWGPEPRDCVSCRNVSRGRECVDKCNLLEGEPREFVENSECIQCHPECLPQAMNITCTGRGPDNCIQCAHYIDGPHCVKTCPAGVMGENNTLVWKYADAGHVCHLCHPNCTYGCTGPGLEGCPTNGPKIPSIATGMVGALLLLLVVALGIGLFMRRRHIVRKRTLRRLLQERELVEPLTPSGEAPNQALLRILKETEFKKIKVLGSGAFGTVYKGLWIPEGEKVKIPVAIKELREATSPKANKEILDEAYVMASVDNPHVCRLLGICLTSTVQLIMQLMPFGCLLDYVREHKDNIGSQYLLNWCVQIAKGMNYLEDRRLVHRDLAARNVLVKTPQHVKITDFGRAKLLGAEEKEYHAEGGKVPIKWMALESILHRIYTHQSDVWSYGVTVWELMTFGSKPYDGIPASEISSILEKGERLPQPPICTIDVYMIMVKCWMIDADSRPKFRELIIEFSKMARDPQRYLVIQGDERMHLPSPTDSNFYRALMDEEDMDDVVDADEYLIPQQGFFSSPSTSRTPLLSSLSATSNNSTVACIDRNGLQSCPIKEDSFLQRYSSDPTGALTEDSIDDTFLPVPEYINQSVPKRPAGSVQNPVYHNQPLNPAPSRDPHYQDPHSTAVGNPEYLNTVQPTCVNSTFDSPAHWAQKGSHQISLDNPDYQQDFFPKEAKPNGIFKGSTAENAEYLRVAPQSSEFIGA

Row | Structure (SMILES) | EC50
1 | CC(C)n1nc(N2CCCC2)c2cnc(Nc3ccnc(N4CCC(O)C(C)(C)C4)n3)cc21 (stereo not drawn) | 499 nM
2 | CC(C)n1nc(N2CC(C(=O)N(C)C)C2)c2cnc(Nc3ccnc(N4CCC(O)C(C)(C)C4)n3)cc21 (stereo not drawn) | 348 nM
3 | CC(C)n1nc(N2CC(C#N)C2)c2cnc(Nc3ccnc(-c4cnn(S(=O)(=O)C5CC5)c4)n3)cc21 | 144 nM
4 | CC(C)n1nc(N2CC[C@H](O)C2)c2cnc(Nc3ccnc(-c4cnn(S(=O)(=O)C5CC5)c4)n3)cc21 | 201 nM
5 | CC(C)n1nc(NCCS(C)(=N)=O)c2cnc(Nc3ccnc(-c4cnn(S(=O)(=O)C5CC5)c4)n3)cc21 (stereo not drawn) | > 10000 nM
6 | CCS(=O)(=O)n1cc(-c2nccc(Nc3cc4c(cn3)c(N3CC(CO)C3)nn4C(C)C)n2)cn1 | 397 nM
7 | CC(C)n1nc(N2CC[C@@H](O)C2)c2cnc(Nc3ccnc(N4CCC(C)(O)CC4)n3)cc21 | 831 nM
8 | CCNC(=O)C1CN(c2nn(C(C)C)c3cc(Nc4ccnc(-c5cnn(S(=O)(=O)C6CC6)c5)n4)ncc23)C1 | 484 nM
9 | CC(C)n1nc(NCC(F)(F)F)c2cnc(Nc3ccnc(-c4cnn(S(=O)(=O)C5CC5)c4)n3)cc21 | > 10000 nM
10 | CC(C)n1nc(C2CCOC2)c2cnc(Nc3ccnc(-c4cnn(S(=O)(=O)C5CC5)c4)n3)cc21 (stereo not drawn) | 1460 nM
11 | CC(C)n1nc(N2CC(C(=O)N3CCOCC3)C2)c2cnc(Nc3ccnc(-c4cnn(S(=O)(=O)C5CC5)c4)n3)cc21 | 344 nM
12 | CCN1CCN(c2nn(C(C)C)c3cc(Nc4ccnc(-c5cnn(S(=O)(=O)C6CC6)c5)n4)ncc23)C1=O | 929 nM
13 | CC(C)n1nc(N2CC[C@H](O)C2=O)c2cnc(Nc3ccnc(-c4cnn(S(=O)(=O)C5CC5)c4)n3)cc21 | 630 nM
14 | CC(n1nc(N2CCNC2=O)c2cnc(Nc3ccnc(N4CCC(C)(O)CC4)n3)cc21)C(F)(F)F (stereo not drawn) | 1070 nM
15 | CC(C)n1nc(NC2COC2)c2cnc(Nc3ccnc(-c4cnn(S(=O)(=O)C5CC5)c4)n3)cc21 | 167 nM
16 | CC1CN(c2nn(C(C)C)c3cc(Nc4ccnc(-c5cnn(S(=O)(=O)C6CC6)c5)n4)ncc23)C(=O)N1 (stereo not drawn) | 377 nM
17 | CC(C)n1nc(N2CCC(C(=O)N(C)C)C2)c2cnc(Nc3ccnc(-c4cnn(S(=O)(=O)C5CC5)c4)n3)cc21 (stereo not drawn) | 163 nM
18 | CC(O)C1CN(c2nn(C(C)C)c3cc(Nc4ccnc(-c5cnn(S(=O)(=O)C6CC6)c5)n4)ncc23)C1 (stereo not drawn) | 266 nM
19 | CC[C@H](C)n1nc(N2CC(C(C)(C)O)C2)c2cnc(Nc3ccnc(N4CC[C@@H](O)[C@@H](F)C4)n3)cc21 | 429 nM
20 | CC(C)n1nc(N2CC[C@@H](O)C2)c2cnc(Nc3ccnc(-c4cnn(S(=O)(=O)C5CC5)c4)n3)cc21 | 190 nM

Row | Structure (SMILES) | EC50
21 | COC1CCN(c2nccc(Nc3cc4c(cn3)c(N)nn4C[C@H]3CC[C@H](N)CC3)n2)CC1 | > 10000 nM
22 | Cc1cn[nH]c1-c1nn(C(C)C)c2cc(Nc3ccnc(N4CCC(O)C(C)(C)C4)n3)ncc12 (stereo not drawn) | 1710 nM
23 | CC(C)n1nc(N2CCCC2)c2cnc(Nc3ccnc(-c4cnn(CC5CC5)c4)n3)cc21 | 1060 nM
24 | CC(C)n1nc(N)c2cnc(Nc3ccnc(-c4cnn(S(=O)(=O)C5CC5)c4)n3)cc21 | 247 nM
25 | CC(C)n1nc(N2CC[C@H](N)C2=O)c2cnc(Nc3ccnc(N4CCC(C)(O)CC4)n3)cc21 | 9730 nM
26 | CC(C)n1ncc2cnc(Nc3ccnc(N4CCC(O)C(C)(C)C4)n3)cc21 (stereo not drawn) | 110 nM
27 | CC(Nc1nn(C(C)C)c2cc(Nc3ccnc(-c4cnn(S(=O)(=O)C5CC5)c4)n3)ncc12)C(N)=O (stereo not drawn) | 4620 nM
28 | COCCNC(=O)C1CN(c2nn(C(C)C)c3cc(Nc4ccnc(-c5cnn(S(=O)(=O)C6CC6)c5)n4)ncc23)C1 | 1450 nM
29 | CC(C)n1nc(N2CC(F)(F)C2)c2cnc(Nc3ccnc(-c4cnn(S(=O)(=O)C5CC5)c4)n3)cc21 | 312 nM
30 | CC(C)n1nc(N2CCN(C)C2=O)c2cnc(Nc3ccnc(-c4cnn(S(=O)(=O)C5CC5)c4)n3)cc21 | > 10000 nM
31 | CC[C@H](C)n1nc(N2CC3(COC3)C2)c2cnc(Nc3ccnc(OCC(C)(C)S(C)(=O)=O)n3)cc21 | 785 nM
32 | CC(C)n1nc(N2CC(N)CC2=O)c2cnc(Nc3ccnc(N4CCC(C)(O)CC4)n3)cc21 (stereo not drawn) | > 10000 nM
33 | CC(C)n1nc(N2CCCNC2=O)c2cnc(Nc3ccnc(-c4cnn(S(=O)(=O)C5CC5)c4)n3)cc21 | 765 nM
34 | CC(C)c1nn(C(C)C)c2cc(Nc3ccnc(-c4cnn(S(=O)(=O)C5CC5)c4)n3)ncc12 | 3700 nM
35 | CC(C)n1nc(N2CC(C(=O)N3CC[C@H](CO)C3)C2)c2cnc(Nc3ccnc(-c4cnn(S(=O)(=O)C5CC5)c4)n3)cc21 | 1160 nM
36 | CC(n1nc(N2CC[C@@H](O)C2)c2cnc(Nc3ccnc(N4CCC(C)(O)CC4)n3)cc21)C(F)(F)F (stereo partly drawn) | 901 nM
37 | CC(C)n1nc(NCC(C)(C)O)c2cnc(Nc3ccnc(-c4cnn(S(=O)(=O)C5CC5)c4)n3)cc21 | 1200 nM
38 | CC(C)n1nc(N(C)CC(O)CO)c2cnc(Nc3ccnc(-c4cnn(S(=O)(=O)C5CC5)c4)n3)cc21 (stereo not drawn) | 945 nM
39 | CC(C)n1nc(N2CC(O)C2)c2cnc(Nc3ccnc(-c4cnn(S(=O)(=O)C5CC5)c4)n3)cc21 | 1120 nM
40 | CCC(C)n1nc(N2CCN(C(=O)[C@H](C)O)CC2)c2cnc(Nc3ccnc(-c4cnn(S(=O)(=O)C5CC5)c4)n3)cc21 (stereo partly drawn) | 813 nM

Row | Structure (SMILES) | EC50
41 | CC(C)n1nc(N2CC(C)(CO)C2)c2cnc(Nc3ccnc(-c4cnn(S(=O)(=O)C5CC5)c4)n3)cc21 | 620 nM
42 | CC(C)n1nc(N2CCS(=N)(=O)CC2)c2cnc(Nc3ccnc(-c4cnn(S(=O)(=O)C5CC5)c4)n3)cc21 | 949 nM
43 | CC(C)n1nc(N2CC3(COC3)C2)c2cnc(Nc3ccnc(-c4cnn(CC5CC5)c4)n3)cc21 | 732 nM
44 | CCC(C)n1nc(N2CC[C@@H](O)C2)c2cnc(Nc3ccnc(N4CC[C@H](O)[C@H](F)C4)n3)cc21 (stereo partly drawn) | 263 nM
45 | CC[C@H](C)n1nc(N2CC3(COC3)C2)c2cnc(Nc3ccnc(N4CC[C@](C)(O)[C@H](F)C4)n3)cc21 | 874 nM and 631 nM
46 | CC(C)n1nc(N2CCOC(CO)C2)c2cnc(Nc3ccnc(-c4cnn(S(=O)(=O)C5CC5)c4)n3)cc21 (stereo not drawn) | 241 nM
47 | CC(C)n1nc(N2CCC(O)C2)c2cnc(Nc3ccnc(-c4cnn(S(=O)(=O)C5CC5)c4)n3)cc21 (stereo not drawn) | 201 nM
48 | CCC(C)n1nc(N2CC[C@@H](O)C2=O)c2cnc(Nc3ccnc(-c4cnn(S(=O)(=O)C5CC5)c4)n3)cc21 (stereo partly drawn) | 586 nM
49 | CC(C)n1nc(NC(C)(C)C)c2cnc(Nc3ccnc(-c4cnn(S(=O)(=O)C5CC5)c4)n3)cc21 | 4620 nM
50 | CCC(C)n1nc(N2CC(C(C)(C)O)C2)c2cnc(Nc3ccnc(N4CCC(O)C(C)(C)C4)n3)cc21 (stereo not drawn) | 288 nM
51 | CC(C)NC(=O)C1CN(c2nn(C(C)C)c3cc(Nc4ccnc(-c5cnn(S(=O)(=O)C6CC6)c5)n4)ncc23)C1 | 825 nM
52 | CC(C)n1nc(N2CC(C(C)(C)O)C2)c2cnc(Nc3ccnc(-c4cnn(S(=O)(=O)C5CC5)c4)n3)cc21 | 423 nM
53 | CC(C)n1nc(N2CCC3(COC3)C2)c2cnc(Nc3ccnc(-c4cnn(S(=O)(=O)C5CC5)c4)n3)cc21 | 431 nM
54 | CC(C)n1nc(N2CC[C@H](CO)C2)c2cnc(Nc3ccnc(-c4cnn(S(=O)(=O)C5CC5)c4)n3)cc21 | 139 nM
55 | CC(C)n1nc(N2CC[C@@H](C#N)C2)c2cnc(Nc3ccnc(-c4cnn(S(=O)(=O)C5CC5)c4)n3)cc21 | 121 nM
56 | CC(C)n1nc(N2C[C@H](O)[C@@H](F)C2)c2cnc(Nc3ccnc(-c4cnn(S(=O)(=O)C5CC5)c4)n3)cc21 | 240 nM
57 | CC(C)n1nc(N2CCOCC2)c2cnc(Nc3ccnc(N4CCC(O)C(C)(C)C4)n3)cc21 (stereo not drawn) | 1410 nM
58 | CCC(C)n1nc(N2CC3(COC3)C2)c2cnc(Nc3ccnc(N4CCC(C)(O)CC4)n3)cc21 (stereo not drawn) | 881 nM
